Laboratory results from PMC9526870 (iScience, 2022).

System: SARS-CoV-2
Type: cell-based

SMILES: CCC(CC)COC(=O)[C@H](C)N[P@](=O)(OC[C@H]1O[C@@](C#N)(c2ccc3c(N)ncnn23)[C@H](O)[C@@H]1O)Oc1ccccc1 [remdesivir]
- SARS-CoV-2 fluorescence signal in host cells (in words): depletion of the SARS-CoV-2 fluorescence signal
